Molecular target: recombinantly expressed human PARP-1 enzyme (Homo sapiens, UniProt P09874)
Test: PARP enzyme assay
Format: biochemical
Conditions: DNA-activated PARP-1, 200 μM NAD, tritium-labeled NAD incorporation, pH=8.0, room temperature, 1 hour
Experimental: Pharmacological Investigations PARP Enzyme Assay
The half-maximum inhibitor concentration is determined by incubating the substances to be tested with the DNA-activated, recombinantly expressed and purified PARP-1 enzyme. Specifically, various concentrations of the test substance are incubated in 50 μl of reaction solution, which contains 50 mM Tris, 5 mM MgCl2, 1 mM DTT, 200 μM NAD, 0.1 mCi/ml tritium-labeled NAD, 0.1 mg/ml DNA, 0.1 mg/ml histones, 2 μg/ml recombinantly expressed human PARP-1 enzyme, pH=8.0, at room temperature for 1 hour. The reaction is stopped by adding 150 μl of 20% trichloroacetic acid, and the radiolabelled protein constituents are precipitated. After incubation on ice for 10 minutes, the labeled, insoluble constituents are separated off through a glass fiber filter and, after washing with 20% trichloroacetic acid three times, the radioactivity incorporated by the PARP-1 enzyme is measured by radioluminescence. Consideration of the incorporation rates determined in this way as a function of the concentration of the test substance results in the half-maximum inhibitor concentration (IC50) as the concentration of the test substance which reduces the incorporation rate to half the maximum value attainable (incubation without inhibitor).

Chain of recombinantly expressed human PARP-1 enzyme (P09874 whole entry): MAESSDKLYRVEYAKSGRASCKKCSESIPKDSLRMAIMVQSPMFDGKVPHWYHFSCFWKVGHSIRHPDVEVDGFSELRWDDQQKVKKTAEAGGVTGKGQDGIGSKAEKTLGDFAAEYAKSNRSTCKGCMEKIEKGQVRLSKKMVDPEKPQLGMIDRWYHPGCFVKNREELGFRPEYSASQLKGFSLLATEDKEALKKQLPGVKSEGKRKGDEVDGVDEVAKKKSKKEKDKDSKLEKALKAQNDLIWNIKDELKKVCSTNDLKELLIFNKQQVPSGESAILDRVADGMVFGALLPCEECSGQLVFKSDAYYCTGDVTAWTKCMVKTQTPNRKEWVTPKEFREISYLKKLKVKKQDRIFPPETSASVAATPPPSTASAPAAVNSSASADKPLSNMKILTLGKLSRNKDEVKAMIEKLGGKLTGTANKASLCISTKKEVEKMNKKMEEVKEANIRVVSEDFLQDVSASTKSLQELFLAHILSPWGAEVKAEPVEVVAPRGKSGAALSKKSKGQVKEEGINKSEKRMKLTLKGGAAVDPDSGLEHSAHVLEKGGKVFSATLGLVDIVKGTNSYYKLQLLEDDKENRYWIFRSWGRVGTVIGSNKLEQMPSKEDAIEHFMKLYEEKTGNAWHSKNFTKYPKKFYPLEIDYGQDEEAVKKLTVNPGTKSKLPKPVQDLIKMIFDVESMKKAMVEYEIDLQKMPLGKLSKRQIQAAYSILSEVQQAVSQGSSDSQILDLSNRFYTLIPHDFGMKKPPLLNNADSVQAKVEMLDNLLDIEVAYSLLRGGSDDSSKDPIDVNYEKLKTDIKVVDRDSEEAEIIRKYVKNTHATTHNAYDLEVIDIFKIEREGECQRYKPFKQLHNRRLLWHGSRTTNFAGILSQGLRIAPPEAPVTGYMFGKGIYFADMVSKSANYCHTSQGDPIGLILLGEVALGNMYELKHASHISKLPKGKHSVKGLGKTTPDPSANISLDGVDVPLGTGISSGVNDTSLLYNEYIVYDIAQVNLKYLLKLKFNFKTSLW

Row | SMILES | IC50
1 | CCc1cc(Nc2ccc3c(c2)N(C(C)=O)CC3)c(C)[nH]c1=O [Example 9, 5-(1-acetyl-2,3-dihydro-1H-indol-6-ylamino)-3-ethyl-6-methyl-1H-pyridin-2-one] | 3.4 µM
2 | CCc1cc(Nc2cccc(C#N)c2)c(C)[nH]c1=O [Example 1, 3-(5-ethyl-2-methyl-6-oxo-1,6-dihydropyridin-3-ylamino)benzonitrile] | 9 µM
3 | CCc1cc(Nc2ccc(NC(C)=O)cn2)c(C)[nH]c1=O [Example 12, N-[6-(5-ethyl-2-methyl-6-oxo-1,6-dihydropyridin-3-ylamino)pyridin-3-yl]-acetamide] | 1.1 µM
4 | CCc1cc(Nc2ccncc2)c(C)[nH]c1=O [Example 15, 3-ethyl-6-methyl-5-(pyridin-4-ylamino)-1H-pyridin-2-one] | 9.5 µM
5 | CCc1cc(Oc2cccc(OC)c2)c(C)[nH]c1=O [Example 20, 3-ethyl-5-(3-methoxyphenoxy)-6-methyl-1H-pyridin-2-one] | 4.8 µM
6 | CCc1cc(Nc2ccc(Oc3cccnc3)cc2)c(C)[nH]c1=O [Example 7, 3-ethyl-6-methyl-5-[4-(pyridin-3-yloxy)phenylamino]-1H-pyridin-2-one] | 4.7 µM
7 | CCc1cc(Nc2cccc(S(C)(=O)=O)c2)c(C)[nH]c1=O [Example 24, 3-ethyl-5-(3-methanesulfonylphenylamino)-6-methyl-1H-pyridin-2-one] | 6.1 µM
8 | CCc1cc(Nc2ccc(S(=O)(=O)Nc3ccccn3)cc2)c(C)[nH]c1=O [Example 10, 4-(5-ethyl-2-methyl-6-oxo-1,6-dihydropyridin-3-ylamino)-N-pyridin-2-yl-benzenesulfonamide] | 6.2 µM
9 | CCc1cc(Nc2cccnc2)c(C)[nH]c1=O [Example 19, 3-ethyl-6-methyl-5-(pyridin-3-ylamino)-1H-pyridin-2-one] | 9.2 µM
10 | CCc1cc(Nc2cccc(CO)c2)c(C)[nH]c1=O [Example 23, 3-ethyl-5-(3-hydroxymethylphenylamino)-6-methyl-1H-pyridin-2-one] | 9.8 µM

Continued by falling IC50, values first:

Row | IC50 | SMILES
11 | 9.8 µM | CCc1cc(Nc2ccc(S(N)(=O)=O)cc2)c(C)[nH]c1=O [Example 6, 4-(5-ethyl-2-methyl-6-oxo-1,6-dihydropyridin-3-ylamino)benzenesulfonamide]
12 | 4.4 µM | CCc1cc(Nc2ccc(C(C)=O)cc2)c(C)[nH]c1=O [Example 18, 5-(4-acetylphenylamino)-3-ethyl-6-methyl-1H-pyridin-2-one]
13 | 3.9 µM | CCc1cc(Nc2ccc(C#N)cn2)c(C)[nH]c1=O [Example 13, 6-(5-ethyl-2-methyl-6-oxo-1,6-dihydropyridin-3-ylamino)nicotinonitrile]
14 | 2.2 µM | CCc1cc(Nc2cccc(C(N)=O)c2)c(C)[nH]c1=O [Example 2, 3-(5-ethyl-2-methyl-6-oxo-1,6-dihydropyridin-3-ylamino)benzamide]
15 | 1.3 µM | CCc1cc(Nc2cccc(C(C)=O)c2)c(C)[nH]c1=O [Example 3, 5-(3-acetylphenylamino)-3-ethyl-6-methyl-1H-pyridin-2-one]
16 | 0.8 µM | CCc1cc(Nc2cccc(NC(C)=O)c2)c(C)[nH]c1=O [Example 4, N-[3-(5-ethyl-2-methyl-6-oxo-1,6-dihydropyridin-3-ylamino)phenyl]acetamide]

Reference: patent US7863280B2, “Substituted 2-pyridone derivatives, method for their preparation and their use as medicament” (Sanofi-Aventis Deutschland GmbH, priority 2004, dated 2011)
